“Also recorded” adds a separate entry of the source.

This note sets out measurements from patent US20090298707A1, “SPARSE MATRIX SYSTEM AND METHOD FOR IDENTIFICATION OF SPECIFIC LIGANDS OR TARGETS” (priority 2008, published 2009).

In experiment [1] the test system is immobilized S. aureus cells. The experiment can be described thus: Fluorescence microscopy binding of labeled peptides to immobilized bacteria, S. aureus. Particulars: for Binding to S. aureus (fluorescent staining): 25 μM fluorescein-labeled peptide, 10 minutes, immobilized cells. Also noted: species or system Staphylococcus aureus. The protocol:
(§1) Peptide samples were prepared at a concentration of 25 μM for screening against a variety of organisms by exposing immobilized bacteria to labeled peptides. For bacterial cell binding assays, cells were grown overnight, washed, and immobilized in a polylysine-coated 96-well plate. Fluorescein-labeled peptide samples were applied to immobilized bacteria, incubated for 10 minutes and washed extensively to remove unbound peptide. Samples were visualized by fluorescence microscopy. For each peptide, both brightfield and fluorescence images were collected, and camera and microscope settings were not altered between images. The locations of cells and background regions were determined using the brightfield images; those regions were then selected in the fluorescence images for quantitation of pixel values for determination of relative fluorescence intensities (represented as bacterial fluorescence/background fluorescence) using the GNU Image Manipulation Program (The GIMP, see, e.g., www.gimp.org).
The following bacterial species and strains were used: Lactobacillus casei (strain), Escherichia coli (W3110), Enterococcus faecium (strain), Streptococcus mutans (UA140), Streptococcus mitis (ATCC 903), Streptococcus gordonii (NY101), Pseudomonas aeruginosa(strain K), Klebsiella pneumoniae (KAY2026), Myxococcus xanthus (Strains DK1622, wildtype, and difA, exopolysaccharide deficient^21), Micrococcus luteus (strain MS2, a community isolate), Staphylococcus epidermidis (strain), and Staphylococcus aureus(strains, and AM1, a methicillin/oxacillin-resistant community isolate).
For isolation of community-acquired S. aureus and M. luteus strains (strains MS2 and AM1), swabs were collected from the nostrils of several volunteers and streaked on Brain-Heart Infusion (BHI) agar and incubated at 37° C. overnight. Yellow colonies were isolated and typed (Microbial ID, Inc., Newark, Del.). Antibiotic resistance was assayed by plating on BHI in the presence of various antibiotics. Commercially available antibiotic susceptibility test disks were used to assay for oxacillin resistance (BD Biosciences), according to the manufacturer's instructions. Due to the difficulty of obtaining methicillin, oxacillin resistance was used as a proxy for methicillin resistance in isolated strains.^22
The peptides comprising these two refined libraries were synthesized, labeled, and screened against immobilized S. aureus cells exactly as for the original pilot library.
(§2) To examine the specificities of the peptides identified in this experiment, a diverse panel of various strains of bacteria was assembled, consisting of Lactobacillus casei, Escherichia coli, Enterococcus faecalis, Streptococcus mutans, Streptococcus mitis, Streptococcus gordonii, Pseudomonas aeruginosa, Klebsiella pneumoniae, Micrococcus luteus (strain MS2), Staphylococcus epidermidis, and two strains of Staphylococcus aureus: a methicillin/oxacillin-sensitive community isolate and our methicillin/oxacillin-resistant community isolate of (strain AM1). Peptides 3C and 4D from the original pilot library were screened for binding against these bacteria by fluorescence microscopy, and images were analyzed as before.

For another experiment, the system named is M. luteus. The experiment can be described thus: Fluorescence microscopy binding of labeled peptides to immobilized bacteria, M. luteus. Set-up: species or system Micrococcus luteus. To be noted: 25 μM fluorescein-labeled peptide, immobilized cells. On the procedure:
as §1, with “www.gimp.org). […]” for “www.gimp.org).”
as §2

The subject of a further experiment is M. luteus MS2. Description: Pulldown binding assay, Langmuir isotherm fit, M. luteus. Set-up: species or system Micrococcus luteus. To be noted: for Langmuir Affinity (Ka): association constant from Langmuir isotherm fit; for Monolayer Concentration (N): maximum surface concentration from Langmuir fit. An excerpt: (§3) To investigate whether the changes in the observed level of binding were due to changes in the affinities or avidities of the refined peptides for cell surfaces, binding curves were generated for selected peptides and fit to the Langmuir isotherm (where possible), the simplest model describing binding to surfaces (peptides showing either complex or nonspecific binding isotherms were excluded from this analysis).
(§4) Measurements were taken of the absorbance of the labeled peptide at 488 nm (the peak absorbance of the fluorescein label) before and after exposure to the cells. The amount of peptide bound was calculated by comparing the ratio of the final (Af) and initial (Ai) absorbances to the initial concentration (C0)[Cbound=C0(1−(Af/Ai))]. Bacterial surface area per sample was calculated using a stage micrometer to determine the average cell diameter for each species (1.0+/−0.1 μm for S. aureus AM1, 2.7+/−0.1 μm for M. luteus MS2), treating individual cells as discrete spheres. Average cell concentration per unit OD600 was calculated using a hemocytometer.
(§5) Plots were then generated of the amount of peptide bound per m^2 of bacterial surface area vs. the concentration of unbound peptide at equilibrium. Where possible, the resulting isotherms were fit to the Langmuir isotherm (P/A=(KaNCeq)/(1+KaCeq), where P/A represents the molar amount of peptide bound per unit of bacterial surface area, Ka is the association constant of the peptide with the bacterial surface (L/Mol), N is the maximum surface concentration (mol/m^2), and Ceq is the molar concentration of unbound peptide at equilibrium) (Calis et al. (1995) Pharm Res 12(7): 1072-1076). Data plots and curvefits were obtained using Kaleidagraph (Synergy Software).

Experiment [2] has as its system diverse panel of various strains of bacteria. The experiment can be described thus: Specificity screen by fluorescence microscopy against a bacterial panel. To be noted: bacteria other than S. aureus and M. luteus. The experiment is classed as binding. The protocol:
as §1, with “www.gimp.org). […]” for “www.gimp.org).”
as §2

For the next experiment, the system named is S. aureus AM1. The experiment can be described thus: Pulldown binding assay, Langmuir isotherm fit, S. aureus. Also noted: species or system Staphylococcus aureus. Particulars: for Langmuir Affinity (Ka): association constant from Langmuir isotherm fit, fluorescein-labeled peptide 0-100 μM; for Monolayer Concentration (N): maximum surface concentration from Langmuir fit.
Excerpt: as §3, §4, §5

In experiment [3] the test system is Chinese Hamster Ovary (CHO) cells. Description: Pilot library binding to CHO cells. Particulars: fluorescence image. On the procedure:
as §1
(§6) The use of this technology is not limited to bacterial surfaces.

Experiment [4] concerns Candida albicans cells (strain 4741). Description: Pilot library binding to Candida albicans cells. To be noted: fluorescence image. The protocol:
as §1, §6

A short description of experiment [5]: Confocal laser scanning microscopy of labeled peptides on tooth sections. Type of experiment: binding. To be noted: sectioned human tooth, CLSM. An excerpt: The fluorescein-labeled peptides in the initial pilot library were pooled and screened by Confocal Laser Scanning Microscopy as follows. The quadrants of the library were collected into four pools of 9 peptides each. Peptides were screened by exposing the pooled, 5(6)-carboxyfluorescein-labeled peptides to sections taken from human teeth (extracted during normal clinical practice), followed by visualization of the samples by Confocal Laser Scanning Microscopy (CLSM).

As for “Pilot Library 3C: pilot library 9-mer, SEQ ID NO:23; became A1 of the in-plane matrix (SEQ ID NO:46) (LISYILTQL; synthetic pilot library peptide C3)”, the “Binding to S. aureus (fluorescent staining)” value (shortened to “Binding to S. aureus”) in experiment [1] was “Binding was clearly seen; also recorded: binds well”; in experiment [1] (listed as Pilot Library C3) it was “some of the brightest unique staining”. In addition, the “Binding to M. luteus (fluorescent staining)” value (“Binding to M. luteus” below) with M. luteus is “Binding was clearly seen; also recorded: binds well”. In addition, the “Langmuir Affinity (Ka)” value in the experiment on M. luteus MS2 was 4 ± 1 M^−1 × 10000; in the experiment with S. aureus AM1, 5.6 ± 0.9 M^−1 × 10000. Moreover, the “Monolayer Concentration (N)” value came to 0.12 ± 0.02 Mol/m^2 × 0.0001 with M. luteus MS2 and 0.31 ± 0.2 Mol/m^2 × 0.0001 in the experiment on S. aureus AM1. Further, the “Binding to the other bacteria of the panel” value (from here on “Binding to the other bacteria”) in experiment [2] is “significant levels of binding to several of the other bacteria tested; also recorded: significant binding to several strains”.
On to “Pilot Library 3A: pilot library 9-mer, SEQ ID NO:11 (WWSYWWTQW; synthetic pilot library peptide A3)”, for which the “Binding to CHO cells” value in experiment [3] was “binding”. Further, in experiment [4], the “Binding to C. albicans” value was “binding”.
In the case of “In-plane refinement 1B: in-plane refined library peptide, SEQ ID NO:50 (IVSYVITQL; synthetic in-plane refinement library peptide B1)”, in experiment [1], the “Binding to S. aureus” value is recorded as “strongest binding”. Further, the “Binding to immobilized S. aureus relative to peptides of the original pilot library” value in experiment [1] (refined libraries, fluorescence images) is “enhanced binding”. In the experiment on M. luteus, the “Binding to M. luteus” value is reported as “strongest binding”. In the experiment on M. luteus MS2, the “Langmuir Affinity (Ka)” value was determined as 2.4 ± 0.8 M^−1 × 10000 and the “Monolayer Concentration (N)” value amounted to 0.11 ± 0.02 Mol/m^2 × 0.0001. Further, the “Binding to the other bacteria” value in experiment [2] is “no significant binding”.
Turning to “Pilot Library 4D: pilot library 9-mer, SEQ ID NO:30; corner of the in-plane matrix (SEQ ID NO:61) (VAKDVAERV; synthetic pilot library peptide D4)”, the “Binding to S. aureus” value in experiment [1] is given as “Binding was clearly seen”; in experiment [1] (listed as Pilot Library D4), “some of the brightest unique staining”. Further, in the experiment with M. luteus, the “Binding to M. luteus” value was “Binding was clearly seen”. In addition, the “Langmuir Affinity (Ka)” value in the experiment with M. luteus MS2 was found to be 5 ± 2 M^−1 × 10000; in the experiment on S. aureus AM1 it was 5 ± 3 M^−1 × 10000. Also, the “Monolayer Concentration (N)” value stood at 0.16 ± 0.02 Mol/m^2 × 0.0001 in the experiment with M. luteus MS2 and 0.12 ± 0.3 Mol/m^2 × 0.0001 in the experiment on S. aureus AM1. The “Binding to the other bacteria” value in experiment [2] is given as “significant levels of binding to several of the other bacteria tested; also recorded: significant binding to several strains”.
For the substance “Pilot Library E4: pilot library 9-mer, SEQ ID NO:36 (AMKDAMERM; synthetic pilot library peptide E4)”, in experiment [5], the Binding to dentin entry is reported as “No significant staining”; the “Binding to tooth enamel and enamel side of the dentin-enamel junction” value is “clear fluorescent staining”.
As to “AMKDAMERM (synthetic peptide with tissue-specific binding to tooth enamel and enamel-proximal region of dentino-enamel junction) [Pilot Library 4F]”, in experiment [5], the Binding to dentin entry is recorded as “no obvious binding”; the “Binding to tooth enamel and enamel side of the dentin-enamel junction” value is given as “clear binding”.
